From patent publication EP1669379B1, “3,5-DIMETHYL-1-ADAMANTYL-AMMONIUM POLYMERIC SALTS AND THE USE THEREOF IN THE FORM OF ANTIVIRAL AGENTS” (priority 2003, dated 2005)
Where a name gives a salt, the structure may show the parent alone. Read-outs that look alike come from different tables or passages of the source.

Columns and labels:
solubility (qualitative) = type: physicochemical
[1] = tested on: influenza A/Aichi/2/68 virus; assay: duration of antiviral activity in infected mice, preventive application scheme, single oral dose; type: in vivo; conditions: for Protection index of medication (%) when administered in specified periods (hours) before contamination: mice, single oral dose 100mg/kg as calculated per equimolecular DMAAM content
Experimental: (§1) The tests of antiviral activity of produced polymeric salts were conducted against the viruses of types A and B influenza using the tissue culture of chorionallantoic coat fragments from chick-embryos (model CAC) and infecting animals (mice).
(§2) In each experimental and control (placebo) group 20 mice of both sexes were infected.

[2] = tested on: virus of the influenza of the type A/Victoria35/72; type: cell-based; conditions: CAC model; dose 25.0 mcg/ml as calculated per equimolecular content of DMAAM
[3] = acute toxicity, single oral administration to mice (LD50); conditions: both sexes, Balb, mouse, in vivo
Experimental: The toxicity level of claimed compounds was assessed according to a general index of acute toxicity - average fatal dose of LD50. The study was held with a single oral administration of the agent to white mice of both sexes, line "Balb", weight 18 - 20 g, and to white rats, line "Vistar", weight 130 - 250 g (female) and 225 - 370 g (male). The medications were administered to mice in the dose range from 250 to 1100 mg/kg, and to rats in the range of 480 - 2315 mg/kg.

[4] = tested on: virus of the influenza B/Li/40; assay: antiviral activity in infected mice, medical and preventive treatment scheme, oral; type: in vivo; conditions: single dose 50 mg/ml as calculated per equimolecular content of DMAAM, administration frequency 5
Experimental: as §1, §2

[5] = tested on: influenza virus of B type; assay: summary statement on activity against influenza virus of B type; conditions: conclusion from the tables; protection index less than 20 is considered inactive
Description: At the same time synthesized (claimed) polymeric compounds of 3.5-dimethyl-1-adamantylamine have an effective level of antiviral activity against the influenza virus of B type, both in the infection model of chick-embryo and mice.

[6] = tested on: virus of the influenza A/Li/40; assay: antiviral activity in tissue culture of chorionallantoic coat fragments (CAC model), A/Li/40; type: cell-based, chick-embryos; conditions: dose 25.0 mcg/ml as calculated per equimolecular content of DMAAM
Experimental: as §1

[7] = tested on: influenza virus of B type; conditions: statement with reference to USSR author's certificates; cited from earlier work

CC12CC3CC(C)(C1)CC(N)(C3)C2 [3.5-dimethyl-l-adamantylamine, 3.5-dimethyl-1-adamantylamine]
solubility in water (solubility (qualitative)): insoluble in water

CC12CC3CC(C)(C1)CC(N)(C3)C2 [HC - DMAAM (memantine), hydrochloride 3.5-dimethyl-1-adamantylamine]
Protection index of medication (%) when administered in specified periods (hours) before contamination ([1]; 1 hour before contamination): 37% | Protection index of medication (%) when administered in specified periods (hours) before contamination ([1]; 24 hours before contamination): 28% | Protection index of medication (%) when administered in specified periods (hours) before contamination ([1]; 48 hours before contamination): 22% | Protection index of medication (%) when administered in specified periods (hours) before contamination ([1]; 72 hours before contamination): 11% | Protection index of medication (%) when administered in specified periods (hours) before contamination ([1]; 96 hours before contamination): 9% | Protection index of medication (%) when administered in specified periods (hours) before contamination ([1]; 120 hours before contamination): 7% | time of administration before infection at which the medication was effective ([1]; prevention scheme, same dose as calculated per 3.5-dimethyl-1-adamantylamine content): 24 h | Protection index of the medication, % [2]: 39% | LD50 [3]: 363 mg/kg | Protection index of medication, % [4]: 7.1% | The number of animals Died, % [4]: 65% | The number of animals Died, Animal units [4]: 13 | antiviral activity against the influenza virus of B type [5]: is not effective | Protection index of the medication, % [6]: 0%

Cl.NC12CC3CC(CC(C3)C1)C2 [midantan, hydrochloride 1-adamatilamine]
antiviral activity against the influenza virus of B type [7]: is not effective

CC(N)C12CC3CC(CC(C3)C1)C2.Cl (stereo not drawn) [remantadin, hydrochloride α-methyl-α-(1-adamantyl)methylamine]
antiviral activity against the influenza virus of B type [7]: is not effective
